Among the data in ChEMBL document CHEMBL5576077, “A small-molecule degron with a phenylpropionic acid scaffold” (Bioorg Med Chem, 2024) are T/C and Activity values, retold here.

Experiment [1] deals with T1, S-phase kinase-associated protein 2/Haloalkane dehalogenase (Homo sapiens) (UniProt Q13309+P0A3G3). As to the kind of experiment: PROTAC activity at Skp2 in HEK293 cells/HaloTag7 fusion protein (unknown origin) stably expressed in HEK293 cells assessed as protein degradation by measuring test to control ratio at 0.3 uM incubated for 24 hrs by Western blot analysis. In kind it is cell-based. (In general: In western blotting, separated proteins are transferred to a membrane and probed.)

In experiment [2] the target is T1, S-phase kinase-associated protein 2/Haloalkane dehalogenase (Homo sapiens). The experiment is described as follows: PROTAC activity at Skp2 in HEK293 cells/HaloTag7 fusion protein (unknown origin) stably expressed in HEK293 cells assessed as protein degradation by measuring test to control ratio at 1 uM incubated for 24 hrs by Western blot analysis. Type of experiment: cell-based.

For experiment [3] the target is unchanged. As to the kind of experiment: PROTAC activity at Skp2 in HEK293 cells/HaloTag7 fusion protein (unknown origin) stably expressed in HEK293 cells assessed as protein degradation by measuring test to control ratio at 3 uM incubated for 24 hrs by Western blot analysis. In kind it is cell-based.
Experiment [4] deals with T2, S-phase kinase-associated protein 2/Bifunctional ligase/repressor BirA (Homo sapiens) (UniProt P06709+Q13309). As to the kind of experiment: PROTAC activity at Skp2 in HeLa cells/N-terminal HaloTag7-fused TurboID (unknown origin) stably expressed in HeLa cells assessed as protein degradation at 30 uM incubated for 8 hrs by Western blot analysis. Type of experiment: cell-based.

Experiment [5] has as its target T2, S-phase kinase-associated protein 2/Bifunctional ligase/repressor BirA (Homo sapiens). The experiment is described as follows: PROTAC activity at Skp2 in HeLa cells/N-terminal HaloTag7-fused TurboID (unknown origin) stably expressed in HeLa cells assessed as protein degradation at 30 uM incubated for 3 hrs by Western blot analysis. In kind it is cell-based.
Experiment [6] shares this target. As to the kind of experiment: PROTAC activity at Skp2 in HeLa cells/N-terminal HaloTag7-fused TurboID (unknown origin) stably expressed in HeLa cells assessed as protein degradation at 30 uM incubated for 3 to 8 hrs in presence of MG132 by Western blot analysis. In kind it is cell-based. As to conditions: time 3-8 hrs.
For experiment [7] the target is unchanged. The experiment is described as follows: PROTAC activity at Skp2 in HeLa cells/N-terminal HaloTag7-fused TurboID (unknown origin) stably expressed in HeLa cells assessed as protein degradation at 30 uM incubated for 3 to 8 hrs in presence of Epoxomicin by Western blot analysis. In kind it is cell-based. As to conditions: time 3-8 hrs.
For experiment [8] the target is unchanged. As to the kind of experiment: PROTAC activity at Skp2 in HeLa cells/N-terminal HaloTag7-fused TurboID (unknown origin) stably expressed in HeLa cells assessed as protein degradation at 30 uM incubated for 3 to 8 hrs in presence of BafA by Western blot analysis. Type of experiment: cell-based. Conditions: time 3-8 hrs.
The target is the same in experiment [9]. As to the kind of experiment: PROTAC activity at Skp2 in HeLa cells/N-terminal HaloTag7-fused TurboID (unknown origin) stably expressed in HeLa cells assessed as protein degradation at 30 uM incubated for 3 to 8 hrs in presence of NH4Cl by Western blot analysis. In kind it is cell-based. Conditions: time 3-8 hrs.
For experiment [10] the target is unchanged. As to the kind of experiment: PROTAC activity at Skp2 in HeLa cells/N-terminal HaloTag7-fused TurboID (unknown origin) stably expressed in HeLa cells assessed as protein degradation at 30 uM incubated for 8 hrs in presence of MLN4924 by Western blot analysis. In kind it is cell-based.
A short description of experiment [11]: Thermal stabilization of GST-fused HaloTag fusion protein (unknown origin) at 100 uM by SYPRO Orange dye based TSA assay.
For experiment [12], the target named is T1, S-phase kinase-associated protein 2/Haloalkane dehalogenase (Homo sapiens). As to the kind of experiment: PROTAC activity at Skp2 in HEK293 cells/HaloTag7-ELuc fusion protein (unknown origin) stably expressed in HEK293 cells assessed as protein degradation at 1 to 10 uM incubated for 24 hrs by Western blot analysis. In kind it is cell-based. Conditions: dose 1-10 µM.

Calls of active or inactive are those of the source. The calls are words filed in the database; no cut-off is given here.

As to `O=C(O)CCc1ccc(OCCOCCOCCOCCOCCOCCCCCCCl)cc1/C=C1\SC(=S)N(Cc2cccnc2)C1=O`, the T/C is 82 in [1], 64 in experiment [2] and 37 in [3].

`O=C(O)CCc1ccc(OCCOCCOCCOCCCCCCCl)cc1/C=C1\SC(=S)N(Cc2cccnc2)C1=O`: the T/C in [3] was 81.

Take `O=C(O)COc1ccc(OCCOCCOCCOCCOCCOCCCCCCCl)cc1/C=C1\SC(=S)N(Cc2cccnc2)C1=O`: the T/C in experiment [1] was 111; in experiment [2] it was 121; in experiment [3], 103.

As for `O=C(O)COc1ccc(O)cc1/C=C1\SC(=S)N(Cc2cccnc2)C1=O`, the result in [4] was inactive.

For the compound `O=C(O)CCc1ccc(OCCOCCOCCOCCOCCCCCCCl)cc1/C=C1\SC(=S)N(Cc2cccnc2)C1=O`, the T/C in experiment [3] came to 25. The outcome in [5], in [8], in [9], in experiment [10] and in experiment [11] was Active. Besides, the outcome in experiment [6] and in experiment [7] was inactive.

With `O=C(O)CCc1ccc(OCCCOCCCOCCCCCCCl)cc1/C=C1\SC(=S)N(Cc2cccnc2)C1=O`, the result in [12] was Active.

Take `OCCOCCOCCOCCOCCCCCCCl`: the result in [4] was inactive.
